We go through 7 compounds from PMC7249047, “Search for ABCB1 Modulators Among 2-Amine-5-Arylideneimidazolones as a New Perspective to Overcome Cancer Multidrug Resistance” (Molecules, 2020).

Data set [1] is described as follows: Cytotoxicity MTT assay, 24 h, PAR cells. The data set is classed as cell-based. To be noted: mouse, parental (PAR) L5178 mouse T-cell lymphoma cells, read-out: Cytotoxic effect IC50. The protocol: (§1) The cytotoxicity of compounds 7–20 was examined in both aforementioned PAR and MDR mouse T-lymphoma cell lines, using the MTT assay to estimate IC50 values. The selectivity index for cytotoxic action on MDR with respect to PAR cells was calculated (SI, Table 3). […] This range of SI may indicate ABCB1-efflux pump substrate properties for the whole series (7–20), especially distinct in the case of 19 (SI ≤ 0.29), and slightly weaker for 8, 12, 16, and 18.
(§2) L5178 mouse T-cell lymphoma cells (PAR) (ECACC Cat. No. 87111908, obtained from FDA, Silver Spring, MD, USA) were transfected with pHa MDR1/A retrovirus, as previously described by Cornwell et al.. The ABCB1-expressing cell line L5178Y (MDR) was selected by culturing the infected cells with colchicine. The parental L5178 mouse T-cell lymphoma cells and the L5178Y human ABCB1-transfected subline were cultured in McCoy’s 5A medium (Sigma-Aldrich, St Louis, MO, USA) supplemented with 10% heat-inactivated horse serum (Sigma-Aldrich, St Louis, MO, USA), 200 mM L-glutamine (Sigma-Aldrich, St Louis, MO, USA), and a penicillin-streptomycin (Sigma-Aldrich, St Louis, MO, USA) mixture in concentrations of 100 U/L and 10 mg/L, respectively. The cell lines were incubated at 37 °C, in a 5% CO2, 95% air atmosphere.
(§3) Cytotoxicity and antiproliferative assays were performed following the procedure described in the literature. Parental and multidrug-resistant mouse T-lymphoma cells were used to determine the effect of the arylideneimidazolones on the growth of cells. The effects of increasing concentrations of arylideneimidazolones on cell growth were tested in 96-well flat-bottomed microtiter plates. The compounds were diluted in a volume of 100 μL of medium.
(§4) In the case of the mouse T-lymphoma cells, the two-fold serial dilutions were prepared in 100 μL of McCoy’s 5A, horizontally. The parental (PAR) and multidrug-resistant (MDR) mouse T-lymphoma cells were adjusted to a density of 1 × 10^4 cells (for cytotoxic assay) and 6 × 10^3 (for antiproliferative assay) in 100 μL of McCoy’s 5A medium and were added to each well, with the exception of the medium control wells.
(§5) The culture plates were incubated at 37 °C for 24 h (for cytotoxicity assay) and 72 h (for antiproliferative assay); at the end of the incubation period, 20 μL of MTT (thiazolyl blue tetrazolium bromide, Sigma) solution (from a stock solution of 5 mg/mL) were added to each well. After incubation at 37 °C for 4 h, 100 μL of sodium dodecyl sulfate (SDS) (Sigma) solution (10% in 0.01 M HCI) were added to each well and the plates were further incubated at 37 °C overnight. Cell growth was determined by measuring the optical density (OD) at 540/630 nm with a Multiscan EX ELISA reader (Thermo Labsystems, Cheshire, WA, USA).
(§6) Results have been expressed in terms of IC50, defined as the inhibitory dose that reduces the growth of the cells exposed to the tested compounds by 50%, each representing the mean of a minimum of three independent experiments.
On the technique in general: Tetrazolium assays rely on reduction of a dye to a coloured formazan, in cell work by metabolically active cells.

Data set [2] can be described thus: Cytotoxicity MTT assay, 24 h, MDR cells. To be noted: mouse; for IC50 at 24 h: MDR cells, MTT, read-out: Cytotoxic effect IC50; for selectivity ratio at 24 h: cytotoxic action on MDR with respect to PAR cells, read-out: SI (selectivity index), cytotoxicity. The data set is classed as cell-based. The protocol:
as §1, §2, §3, §4, §5, §6

Data set [3] relates to parental (PAR) mouse T-lymphoma cells. Nature of the data set: Antiproliferative MTT assay, 72 h, PAR cells. It is filed as cell-based. To be noted: read-out: Antiproliferative effect IC50. The protocol:
(§7) The ABCB1-expressing cell line L5178Y (MDR) was selected by culturing the infected cells with colchicine. The parental L5178 mouse T-cell lymphoma cells and the L5178Y human ABCB1-transfected subline were cultured in McCoy’s 5A medium (Sigma-Aldrich, St Louis, MO, USA) supplemented with 10% heat-inactivated horse serum (Sigma-Aldrich, St Louis, MO, USA), 200 mM L-glutamine (Sigma-Aldrich, St Louis, MO, USA), and a penicillin-streptomycin (Sigma-Aldrich, St Louis, MO, USA) mixture in concentrations of 100 U/L and 10 mg/L, respectively.
as §3, §4
(§8) Cell growth was determined by measuring the optical density (OD) at 540/630 nm with a Multiscan EX ELISA reader (Thermo Labsystems, Cheshire, WA, USA).

The subject of data set [4] is multidrug-resistant (MDR) mouse T-lymphoma cells. The data set can be described thus: Antiproliferative MTT assay, 72 h, MDR cells. To be noted: for SI (selectivity index), antiproliferative: MDR with respect to PAR cells; for IC50: Mus musculus, MDR cells, 72 h, MTT, read-out: Antiproliferative effect IC50. The data set is classed as cell-based. The protocol: as §7, §3, §4, §8

A further data set addresses ABCB1 efflux pump (Homo sapiens, UniProt P08183). The data set can be described thus: Rhodamine 123 accumulation assay (flow cytometry). To be noted: for FAR Quotient (%): FAR of compound related to FAR of VER tested at 20 µM; for FAR (fluorescence activity ratio): rhodamine 123 accumulation, MDR vs PAR mouse T-lymphoma cells. (A flow cytometer gives signals particle by particle.)

The mark [5] stands for this setting: concentration 20 µM, VER values for assay group 1 / 2.

Where a name gives a salt, the structure may show the parent alone. A value given as a limit tells only on which side of the number the result lay.

Chain of ABCB1 efflux pump (P08183 whole entry): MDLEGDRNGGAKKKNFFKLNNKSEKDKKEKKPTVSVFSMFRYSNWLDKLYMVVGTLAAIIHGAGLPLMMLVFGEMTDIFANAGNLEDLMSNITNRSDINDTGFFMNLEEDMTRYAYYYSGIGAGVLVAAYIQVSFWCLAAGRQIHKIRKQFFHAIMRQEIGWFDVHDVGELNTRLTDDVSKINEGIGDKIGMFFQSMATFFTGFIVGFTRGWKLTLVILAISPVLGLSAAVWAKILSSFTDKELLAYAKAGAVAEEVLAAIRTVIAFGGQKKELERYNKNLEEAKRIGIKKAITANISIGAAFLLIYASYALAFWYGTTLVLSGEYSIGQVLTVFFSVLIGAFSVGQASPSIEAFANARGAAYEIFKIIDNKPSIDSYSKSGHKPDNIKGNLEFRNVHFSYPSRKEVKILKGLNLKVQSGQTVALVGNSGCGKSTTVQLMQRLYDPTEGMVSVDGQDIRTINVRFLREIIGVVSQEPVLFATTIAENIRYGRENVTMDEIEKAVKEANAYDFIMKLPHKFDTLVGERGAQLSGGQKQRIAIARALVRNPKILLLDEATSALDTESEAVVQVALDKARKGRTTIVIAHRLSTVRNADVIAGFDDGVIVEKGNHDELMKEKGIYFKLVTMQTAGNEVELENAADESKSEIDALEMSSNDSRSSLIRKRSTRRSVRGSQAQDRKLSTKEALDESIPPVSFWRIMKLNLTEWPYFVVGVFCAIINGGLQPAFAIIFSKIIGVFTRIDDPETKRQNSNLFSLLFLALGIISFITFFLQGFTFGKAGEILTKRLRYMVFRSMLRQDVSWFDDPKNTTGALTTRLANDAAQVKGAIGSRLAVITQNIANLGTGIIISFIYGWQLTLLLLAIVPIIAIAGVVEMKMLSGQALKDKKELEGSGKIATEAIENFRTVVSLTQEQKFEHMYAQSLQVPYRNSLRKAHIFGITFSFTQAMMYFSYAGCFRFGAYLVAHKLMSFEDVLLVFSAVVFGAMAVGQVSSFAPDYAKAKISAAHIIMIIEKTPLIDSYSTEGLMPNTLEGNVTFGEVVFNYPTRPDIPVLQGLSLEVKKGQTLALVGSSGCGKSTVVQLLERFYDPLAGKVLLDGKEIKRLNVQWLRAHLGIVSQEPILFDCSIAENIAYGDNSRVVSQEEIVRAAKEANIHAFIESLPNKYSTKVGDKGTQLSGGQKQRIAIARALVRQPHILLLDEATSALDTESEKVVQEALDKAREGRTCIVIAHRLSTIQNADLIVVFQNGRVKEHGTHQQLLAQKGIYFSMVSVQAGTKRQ
Experimental for ABCB1 efflux pump: The study was carried out on mouse T-lymphoma cell lines, including the parental sensitive line (PAR) and its multidrug-resistant subline (MDR) transfected with the human MDR1 (ABCB1) gene. […] The fluorescence activity ratio (FAR), as a measure of the efflux pump modulating properties, was calculated based on the fluorescence data obtained [23, 24, 25]. […] The parental L5178 mouse T-cell lymphoma cells and the L5178Y human ABCB1-transfected subline were cultured in McCoy’s 5A medium (Sigma-Aldrich, St Louis, MO, USA) supplemented with 10% heat-inactivated horse serum (Sigma-Aldrich, St Louis, MO, USA), 200 mM L-glutamine (Sigma-Aldrich, St Louis, MO, USA), and a penicillin-streptomycin (Sigma-Aldrich, St Louis, MO, USA) mixture in concentrations of 100 U/L and 10 mg/L, respectively.
The potency of the tested compounds as inhibitors of the ABCB1 efflux pump was determined using a fluorescence-based detection system, described previously in the literature [23, 26]. […] The parental (PAR) and multidrug-resistant (MDR) mouse T-lymphoma cells were adjusted to a density of 2 × 10^6/mL, re-suspended in serum-free McCoy’s 5A medium, and distributed in 0.5 mL aliquots into Eppendorf centrifuge tubes. […] The fluorescence intensity of the cell population was measured with a Partec CyFlow flow cytometer (Partec, Munster, Germany). […] The mean fluorescence intensity (%) was calculated for the treated MDR and PAR mouse T-lymphoma cells as compared to the untreated cells.

For the compound `Cl.NC1=N/C(=C\c2cc3ccccc3c3ccccc23)C(=O)N1CCCN1CCOCC1` [Compound 20, (Z)-5-(Phenanthren-9-ylmethylene)-2-amino-3-(3-morpholinopropyl)-imidazol-4(5H)-one hydrochloride], the melting point (in general, the temperature of the solid-liquid transition) was 238 to 240 °C. Also, in data set [1], the IC50 (commonly the concentration that gives 50% inhibition) at 24 h is 19.6 µM. Moreover, in data set [2], the IC50 at 24 h stood at 24.9 µM and the selectivity ratio at 24 h amounted to 0.79. For the same compound, the 50% inhibitory concentration (IC50) in data set [3] turned out to be 14.8 µM. In data set [4], the “SI (selectivity index), antiproliferative” value (from here on “SI (selectivity index)”) amounted to 0.85 and the IC50 is 17.3 µM. At ABCB1 efflux pump (concentration 2 µM), the “FAR Quotient (%)” value is listed as 5.59% and the “FAR (fluorescence activity ratio)” value turned out to be 0.896. Besides, the “FAR Quotient (%)” value on ABCB1 efflux pump (concentration 20 µM) stood at 7.72%. Further, the “FAR (fluorescence activity ratio)” value at ABCB1 efflux pump (setting [5]) came out at 1.237.

Take `Cl.O=C1N=C(N2CCN(CCN3CCOCC3)CC2)N/C1=C\c1ccc(-c2ccccc2)cc1` [Compound 9, (Z)-5-(Biphen-4-ylmethylene)-2-(4-(2-morpholinoethyl)piperazin-1-yl)-imidazol-4(5H)-one hydrochloride]: the melting point fell in the range of 305 to 307 °C. Besides, in data set [1], the IC50 at 24 h was 12.8 µM. Moreover, in data set [2], the IC50 at 24 h was 18.1 µM and the selectivity ratio at 24 h stood at 0.71. In data set [3], the IC50 was found to be 7.78 µM. In data set [4], the “SI (selectivity index)” value stood at 0.47 and the IC50 turned out to be 16.5 µM. At ABCB1 efflux pump (concentration 2 µM), the “FAR Quotient (%)” value amounted to 5.86% and the “FAR (fluorescence activity ratio)” value is recorded as 0.766. On ABCB1 efflux pump (concentration 20 µM), the “FAR Quotient (%)” value is 12.58%. Also, the “FAR (fluorescence activity ratio)” value on ABCB1 efflux pump (setting [5]) came out at 1.645.

Turning to `NC1=N/C(=C\c2ccc(-c3ccccc3)cc2)C(=O)N1CCN1CCOCC1` (as salt: hydrochloride) [Compound 14], the melting point lay in the range of 266 to 270 °C.

As for `NC1=N/C(=C\c2ccc(-c3ccccc3)cc2)C(=O)N1CCN1CCOCC1` [Compound 14], the results for the concentration for half-maximal inhibition (IC50) at 24 h in data set [1] and in data set [2] were 36.9 µM and 57.4 µM, respectively. The selectivity ratio at 24 h in data set [2] worked out at 0.64. Moreover, the IC50 in data set [3] was found to be 24.9 µM; in data set [4], 27.9 µM. Also, the “SI (selectivity index)” value in data set [4] was 0.89. Further, the “FAR Quotient (%)” value at ABCB1 efflux pump (concentration 2 µM) is given as 6.22%; on ABCB1 efflux pump (concentration 20 µM), 6.48%. Further, the “FAR (fluorescence activity ratio)” value at ABCB1 efflux pump (concentration 2 µM) was 0.814; at ABCB1 efflux pump (setting [5]), 0.847.

For the compound `NC1=N/C(=C\c2c3ccccc3cc3ccccc23)C(=O)N1CCCN1CCOCC1` [Compound 19], the concentration for half-maximal inhibition (IC50) at 24 h in data set [1] was 28.6 µM; in data set [2] it was greater than 100 µM. Besides, the selectivity ratio at 24 h in data set [2] is no more than 0.29. Further, the figures for the IC50 in data set [3] and in data set [4] were 14.4 µM and 43.8 µM, respectively. The “SI (selectivity index)” value in data set [4] is on record as 0.33. The “FAR Quotient (%)” value at ABCB1 efflux pump (concentration 2 µM) was 7.94%; at ABCB1 efflux pump (concentration 20 µM), 10.08%. In addition, the results for the “FAR (fluorescence activity ratio)” value at ABCB1 efflux pump (concentration 2 µM) and at ABCB1 efflux pump (setting [5]) were 1.272 and 1.615, respectively.

Consider `COc1cccc2c1C(=O)c1c(O)c3c(c(O)c1C2=O)C[C@@](O)(C(=O)CO)C[C@@H]3O[C@H]1C[C@H](N)[C@H](O)[C@H](C)O1` [DOX, doxorubicin, reference compound], for which the IC50 at 24 h in data set [1] stood at 0.7 µM. In data set [2], the half-maximal inhibitory concentration (IC50) at 24 h was 2.14 µM and the selectivity ratio at 24 h came out at 0.33. Further, the IC50 in data set [3] turned out to be 0.28 µM. In data set [4], the “SI (selectivity index)” value is 0.16 and the IC50 came to 1.75 µM.

Take `NC1=N/C(=C\c2cccc(Oc3ccccc3)c2)C(=O)N1CCCN1CCOCC1` [Compound 16]: the IC50 at 24 h in data set [1] came to 16 µM; in data set [2], 31.3 µM. Besides, the selectivity ratio at 24 h in data set [2] is 0.51. Further, the 50% inhibitory concentration (IC50) in data set [3] worked out at 11.4 µM; in data set [4], 12.2 µM. The “SI (selectivity index)” value in data set [4] came out at 0.94. For the same compound, the “FAR Quotient (%)” value at ABCB1 efflux pump (concentration 2 µM) came to 7.09%; at ABCB1 efflux pump (concentration 20 µM) it was 18.55%. Further, the “FAR (fluorescence activity ratio)” value came to 0.927 on ABCB1 efflux pump (concentration 2 µM) and 2.426 on ABCB1 efflux pump (setting [5]).
